Results published in patent US20250066727A1, “COMPOSITIONS AND METHODS FOR CULTURING STEM CELLS” (Beijing TheraXyte BioScience Co. Ltd., priority 2021, published 2025).

Experiments:
Assay type in all cases: cell-based
adult KSCs [1] = assay: Growth supplement function assay (EdU / p63); settings: 24 hours; for concentration that could promote adult KSCs proliferation (EdU/p63 ratio): added to KSFX-free basal medium
Procedure: For the EdU (5-ethynyl-2′-deoxyuridine) assay, 5×10^3 cells were plated to a well of the 96-well cell culture plate and cultured for overnight. On the second day, the cells were treated with 10 μM EdU for 3 hours at 37° C. The cells were washed with PBS and then fixed with 4% formaldehyde for 30 min at RT. The cells were washed with PBS and then permeabilized with 0.1% Triton for 20 min at RT. The cells were washed with PBS and then labeled with freshly prepared EdU labeling buffer containing 5 μM of Sulfo-Cyanine 3 azide, 4 mM of Copper(II) sulfate pentahydrate, 2 mg/mL of Sodium L-ascorbate in PBS for 30 min at RT. The cells were washed with PBS and labeled with Hoechst if needed. Finally, the plate was scanned and analyzed by Celllnsight CX5 HCA reader.
Cells were washed with PBS once and then fixed with 4% formaldehyde for 30 min at room temperature (RT). The cells were washed with PBS and then permeabilized with 0.1% Triton for 20 min at RT The cells were washed with PBS and then blocked with 3% BSA for 1 hr at RT. Then the cells were incubated with primary antibodies such as anti-KRT14, or anti-p63 overnight at 4° C. The cells were washed with PBS and labeled with the secondary antibody such as Goat anti-Mouse Alexa Fluor 488, Goat anti-Rabbit Alexa Fluor 647, and Hoechst if needed. Finally, the plate was scanned and analyzed by CellInsight CX5 HCA reader. Microscopy was captured with Confocal Microscope A1 HD25.
Different concentrations of each factor were added to the KSFX-free basal medium and the adult KSCs were cultured for 24 hours. Then cells were labeled with EdU as well as the KSCs marker p63. The ratio of EdU/p63 indicates the proliferation rate of KSCs, and the p63 count indicates the total cell number which is a result of cell proliferation and cell death.

adult KSCs [2] = assay: Calcium concentration function assay in KSFX-free basal medium
Procedure: (§1) For long-term proliferation assay, cells were continuously passaged on the 6-well cell culture plate. For each passage, 2×10^5 viable cells were plated and then cultured for about 5 days, when the cells were ˜90% confluent, cells were passaged and the cell number as well as the viability with the cell counter were recorded. Microscopy was performed with Eclipse TS100 (Nikon).
The effect of calcium concentrations in the KSFX-free basal medium on the proliferation and differentiation of adult KSCs were tested. Cells were cultured in different concentrations of calcium, including 0 mM, 0.05 mM, 0.15 mM, 0.5 mM, and 1.5 mM for 10 passages. As shown in FIG. 8 and FIG. 9A, withdraw of calcium led to the growth stop of adult KSCs after 3 passages.

adult KSCs [3] = assay: Coating matrix function assay: attachment and spreading of adult KSCs in KSFX-free basal medium
Procedure: Coating Matrix Preparation—Coating matrix such as Collagen I, Poly-D-Lysine (PDL), Matrigel, rh-Fibronectin, and rh-Laminin 521 were prepared according to the instructions of the manufacture (Table 1). Briefly, for one well of the 6-well cell culture plate, 1 mL of the working solution was added to the surface of the well and the plate was incubated at the recommended condition. Then the well was washed once with 1 mL of PBS and ready to be used.
The keratinocyte stem cells (KSCs) were isolated from donated foreskin or fetal skin tissue. Briefly, the skin tissue was cleaned up with 70% ethanol and washed several times with PBS containing antibiotics. The tissue in PBS was collected, trimmed away any fat and loose fascia, and cut into strips approximately 0.5 cm×1.5 cm. The tissue was submerged in dispase and treated overnight at 4° C. The epidermis was then separated from the dermis and washed with PBS several times. All the epidermis was collected into one tube containing the TrypLE and incubated for 30 minutes at 37° C. Enough PBS was added to neutralize the TrypLE and the solution was pipetted up and down to suspend the cells. The cell suspension was passed through a 70 μm cell strainer, and then the cells were pelleted by centrifugation at 300 g for 10 minutes. The cell pellet was resuspended in culture medium and the concentration of the viable cells/mL was determined. 2×10^4 viable epidermal cells/cm^2 was plated on culture flask treated with coating matrix, and then the flask was incubated in a 37° C., 95% air/5% CO2 saturated humidity chamber. The culture medium was changed every 48 hours. Once the cultures were ˜80% confluent, the cells were subcultured and/or cryopreserved using a freezing medium. For subculture, cells were washed once by PBS then treated with TrypLE for no more than 6 min at 37° C. PBS was added to neutralize the TrypLE, and then the tube was centrifuged at 300 g for 10 min. New flasks were seeded at 1-2×10^4 cells/cm^2.
The function of each coating matrix listed in Table 1 was tested for the attachment and spreading of adult KSCs. […]

adult KSCs [4] = assay: Long-term proliferation of adult KSCs on coating matrix in KSFX-free basal medium; settings: 5 passages
Procedure: as §1
Further, the proliferation functions of FN, COLI, and LN was also tested in the KSFX-free basal medium. Adult KSCs were continuously passaged and the population doubling (PD) curves were calculated.

[5] = 1.5 mM calcium, KSFX-free basal medium

Cc1cccc(-c2nn(C(=S)Nc3ccccc3)cc2-c2ccnc3ccccc23)n1 [A 83-01]
concentration that could promote adult KSCs proliferation (EdU/p63 ratio) (adult KSCs [1]): at least 0.5 μM

C[C@@H](N)[C@H]1CC[C@H](C(=O)Nc2ccncc2)CC1 [Y-27632]
concentration that could promote adult KSCs proliferation (EdU/p63 ratio) (adult KSCs [1]): at least 1 μM | change of the total cell number (p63 count) compared with the blank (adult KSCs [1]; at least 1 μM (such as 1-10 μM), KSFX-free basal medium): two-fold change

[Ca+2] [calcium]
passages after which adult KSCs stopped growing (adult KSCs [2]; 0 mM calcium (withdraw of calcium), KSFX-free basal medium): 3 passages | proliferation rate of adult KSCs (adult KSCs [2]; 0.05 mM calcium, later passages): started to grow slower later | proliferation of adult KSCs (adult KSCs [2]; 0.5 mM calcium, KSFX-free basal medium): could proliferate longer, with more cell-to-cell connections | differentiation of adult KSCs (adult KSCs [2]; [5]): most of cells had differentiated with the collapsed nucleus | passages after which adult KSCs stopped growing (adult KSCs [2]; [5]): 5 passages | calcium concentration that can better support the long-term expansion of adult KSCs (adult KSCs [2]; KSFX-free basal medium, 10 passages): 0.1 to 1.0 mM

COLI: Collagen I coating matrix, extracted from rat tail, 50 μg/mL
attachment and spreading of adult KSCs (adult KSCs [3]; after 30 min of culturing, bright-field microscopy): attached to the plate and spread with a flatten morphology | attachment and spreading of adult KSCs (adult KSCs [3]; after 2 hours of culturing): fully spread | attachment/spreading function, comparison among the coating matrix tested (adult KSCs [3]; overall): performed better functions compared with MAT and PDL | long-term expansion of adult KSCs in vitro (adult KSCs [4]): supported the long-term expansion of adult KSCs in vitro | proliferation of adult KSCs (population doubling) compared with blank (adult KSCs [4]; continuously passaged): could promote the proliferation of adult KSCs
